# Laboratory results from patent US20250302948A1, “DR5 Agonist and IAP Antagonist Combination Therapy” (Inhibrx Biosciences, Inc., priority 2022, published 2025).
# B1: INBRX-109: DR5-binding polypeptide consisting of SEQ ID NO: 7, or SEQ ID NO: 7 lacking the terminal lysine; tetravalent DR5 agonist (protein)
# chain: EVQLLESGGGEVQPGGSLRLSCAASGLTFPNYGMGWFRQAPGKEREFVSAIYWSGGTVYYAESVKGRFTISRDNAKNTLYLQMSSLRAEDTAVYYCAVTIRGAATQTWKYDYWGQGTLVTVKPGGSGGSEVQLLESGGGEVQPGGSLRLSCAASGLTFPNYGMGWFRQAPGKEREFVSAIYWSGGTVYYAESVKGRFTISRDNAKNTLYLQMSSLRAEDTAVYYCAVTIRGAATQTWKYDYWGQGTLVTVKPGGGGDKTHTCPPCPAPGGPSVFLFPPKPKDTLMISRTPEVTCVVVDVSHEDPEVKFNWYVDGVEVHNAKTKPREEQYNSTYRVVSVLTVLHQDWLNGKEYKCKVSNKALPAPIEKTISKAKGQPREPQVYTLPPSRDELTKNQVSLTCLVKGFYPSDIAVEWESNGQPENNYKTTPPVLDSDGSFFLYSKLTVDKSRWQQGNVFSCSVMHEALHNHYTQKSLSLSPGK
# modifications: Synthetic: INBRX-109
# notes: tetravalent DR5 agonist
# Experiments:
# HT-29 = assay: CellTiter-Glo cell viability, 48 h (Example 1); format: cell-based; conditions: Homo sapiens
# Description: (§1) Test Article Preparation for INBRX-109.
# (§2) Day 2—Test and Control Article Addition.
# (§3) Day 4—Viability Measurements. […] Data was graphed in GraphPad Prism 7.
# LOVO = assay: CellTiter-Glo cell viability, 48 h (Example 1); format: cell-based; conditions: Homo sapiens
# Description: as §1, §2, §3
# LS411N = assay: CellTiter-Glo cell viability, 48 h (Example 1); format: cell-based; conditions: Homo sapiens, LS-411N
# Description: as §1, §2, §3
# SNU-C2B = assay: CellTiter-Glo cell viability, 48 h (Example 1); format: cell-based; conditions: Homo sapiens
# Description: as §1, §2, §3
# SW620 = assay: CellTiter-Glo cell viability, 48 h (Examples 1, 2); format: cell-based; conditions: Homo sapiens, SW-620
# Description: as §1, §2, §3
# HCC2935 = assay: Cytotoxicity on lung cancer cell lines, assay similar to Example 1 (Example 4); conditions: Homo sapiens
# Description: (§6) Day 1-Cell Seeding. Monolayer cultures of each cell line were harvested for compound screening as detailed below. Culture medium was aspirated, and the cells were washed once with PBS. Accutase was added and flasks were incubated at 37° C. until cells became detached. An equal volume of complete medium was added to quench the Accutase, and the cells were then pipetted up and down several times to generate a homogenous single cell suspension. The density and viability of cells was determined by Trypan Blue using a TC20 Automated Cell Counter. Experimental cells were resuspended to a concentration of 0.17×10^6/mL in EMEM/10% FBS/Anti-Anti media (complete EMEM) and seeded in the inner wells of 384-well luminescence plates at 15 μL/well (2,500/well final). Each cell line was plated in duplicate on separate plates. […]
# (§7) Day 4—Viability Measurements. […] Any visible bubbles were removed with 100% ethanol vapor, then luminescence (RLU) was read on the Spectra Max M5e plate reader, using the 384-well opaque plate setting and SoftMaxPro v5.4 software with an integration time of 50 milliseconds. To determine the effect of test articles on cell viability, raw RLU values were exported to Excel and percent survival was calculated as a percentage of vehicle control (0.2% DMSO in EMEM), where the vehicle control is set at 100%. […]
# AsPC-1 = assay: Cytotoxicity on pancreatic cancer cell lines, assay similar to Example 1 (Example 4); conditions: Homo sapiens, ASPC1
# Description: as §6
# (§8) Day 4—Viability Measurements. […] Any visible bubbles were removed with 100% ethanol vapor, then luminescence (RLU) was read on the Spectra Max M5e plate reader, using the 384-well opaque plate setting and SoftMaxPro v5.4 software with an integration time of 50 milliseconds. To determine the effect of test articles on cell viability, raw RLU values were exported to Excel and percent survival was calculated as a percentage of vehicle control (0.2% DMSO in EMEM), where the vehicle control is set at 100%.
# MIA-PaCa-2 = assay: as above; conditions: Homo sapiens
# Description: as §6, §7
# NCI-N87 = assay: Cytotoxicity on gastric cancer cell lines, assay similar to Example 1 (Example 4); conditions: Homo sapiens
# Description: as §6, §8
# NCI-H23 = assay: Cytotoxicity on lung cancer cell lines, assay similar to Example 1 (Example 4); conditions: Homo sapiens
# Description: as §6, §7
# SNU-1 = assay: Cytotoxicity on gastric cancer cell lines, assay similar to Example 1 (Example 4); conditions: Homo sapiens, SNU1
# Description: as §6, §8
# SW1990 = assay: Cytotoxicity on pancreatic cancer cell lines, assay similar to Example 1 (Example 4); conditions: Homo sapiens
# Description: as §6, §7
# NCI-H460 = assay: Cytotoxicity on lung cancer cell lines, assay similar to Example 1 (Example 4); conditions: Homo sapiens
# Description: as §6, §7
# SNU-5 = assay: Cytotoxicity on gastric cancer cell lines, assay similar to Example 1 (Example 4); conditions: Homo sapiens
# Description: as §6, §8
# A549 = assay: Cytotoxicity on lung cancer cell lines, assay similar to Example 1 (Example 4); conditions: Homo sapiens
# Description: as §6, §7
# NCI-H2452 = assay: as above; conditions: Homo sapiens
# Description: as §6, §7
# SCC-15 = assay: CellTiter-Glo cell viability, T48 (Example 3); format: cell-based
# Description: (§4) Day 2—Compound Treatment.
# (§5) Day 4—Viability Measurements.
# SCC-9 = assay: CellTiter-Glo cell viability, T48 (Example 3); format: cell-based
# Description: as §4, §5
# KYSE-410 = assay: CellTiter-Glo cell viability, T48 (Example 3); format: cell-based
# Description: as §4, §5
# COLO-680N = assay: CellTiter-Glo cell viability, T48 (Example 3); format: cell-based
# Description: as §4, §5
# KYSE-150 = assay: CellTiter-Glo cell viability, T48 (Example 3); format: cell-based
# Description: as §4, §5
# SW579 = assay: CellTiter-Glo cell viability, T48 (Example 3); format: cell-based
# Description: as §4, §5
# CAL-27 = assay: CellTiter-Glo cell viability, T48 (Example 3); format: cell-based
# Description: as §4, §5
# TE-1 = assay: CellTiter-Glo cell viability, T48 (Example 3); format: cell-based
# Description: as §4, §5
# KYSE-70 = assay: CellTiter-Glo cell viability, T48 (Example 3); format: cell-based
# Description: as §4, §5
# A253 = assay: CellTiter-Glo cell viability, T48 (Example 3); format: cell-based
# Description: as §4, §5
# SCC-4 = assay: CellTiter-Glo cell viability, T48 (Example 3); format: cell-based
# Description: as §4, §5
# RPMI-2650 = assay: CellTiter-Glo cell viability, T48 (Example 3); format: cell-based
# Description: as §4, §5
# KYSE-270 = assay: CellTiter-Glo cell viability, T48 (Example 3); format: cell-based
# Description: as §4, §5
# SCC-25 = assay: CellTiter-Glo cell viability, T48 (Example 3); format: cell-based
# Description: as §4, §5
# Detroit 562 = assay: CellTiter-Glo cell viability, T48 (Example 3); format: cell-based
# Description: as §4, §5
# OSC-19 = assay: CellTiter-Glo cell viability, T48 (Example 3); format: cell-based
# Description: as §4, §5
# FADU = assay: CellTiter-Glo cell viability, T48 (Example 3); format: cell-based
# Description: as §4, §5
# T.Tn = assay: CellTiter-Glo cell viability, T48 (Example 3); format: cell-based
# Description: as §4, §5
# Panc-1 = assay: Cytotoxicity on pancreatic cancer cell lines, assay similar to Example 1 (Example 4); conditions: Homo sapiens
# Description: as §6, §8
# LS174T = assay: CellTiter-Glo cell viability, 48 h (Examples 1, 2); format: cell-based; conditions: Homo sapiens, LCL-161 5 uM alone
# Description: as §1, §2, §3
# [1] = Homo sapiens, Debio-1143 4.5 μM alone
# [2] = LCL-161 5 uM alone, read-out: % cytotoxicity
molecule,measurement,setting,value
CN[C@@H](C)C(=O)N[C@H](C(=O)N1CCC[C@H]1C(=O)N[C@H]1c2ccccc2C[C@H]1OCC#CC#CCO[C@@H]1Cc2ccccc2[C@@H]1NC(=O)[C@@H]1CCCN1C(=O)[C@@H](NC(=O)[C@H](C)NC)C1CCCCC1)C1CCCCC1 [AZD5582],cytotoxicity at 0.45 µM,HT-29; AZD5582 450 nM alone,23.4%
same,cytotoxicity at 0.45 µM,LOVO; AZD5582 450 nM alone,28.2%
same,cytotoxicity at 0.45 µM,"LS411N; LS411N, AZD5582 450 nM alone",12.7%
same,cytotoxicity at 0.45 µM,SNU-C2B; AZD5582 450 nM alone,75.3%
same,cytotoxicity at 0.45 µM,"SW620; SW620, AZD5582 450 nM alone",4.1%
"CN[C@@H](C)C(=O)N[C@H]1CN(C(=O)CC(C)C)CC[C@H]2CC[C@@H](C(=O)NC(c3ccccc3)c3ccccc3)N2C1=O [Debio-1143, xevinapant]",cytotoxicity at 2 µM,HCC2935,4.95%
same,cytotoxicity at 2 µM,AsPC-1,2.71%
same,cytotoxicity at 2 µM,MIA-PaCa-2,7.37%
same,cytotoxicity at 2 µM,NCI-N87,7.01%
same,cytotoxicity at 4.5 µM,LS411N,0.4%
same,cytotoxicity at 4.5 µM,SNU-C2B,44.8%
same,cytotoxicity at 4.5 µM,SW620,5.5%
same,cytotoxicity at 2 µM,NCI-H23,10.8%
same,cytotoxicity at 2 µM,SNU-1,6.83%
same,cytotoxicity at 2 µM,SW1990,2.23%
same,cytotoxicity at 2 µM,NCI-H460,3.43%
same,cytotoxicity at 2 µM,SNU-5,31.5%
same,cytotoxicity at 2 µM,A549,9.61%
same,cytotoxicity at 2 µM,NCI-H2452,2.82%
same,cytotoxicity at 4.5 µM,SCC-15; [1],0.9%
same,cytotoxicity at 4.5 µM,SCC-9; [1],2.3%
same,cytotoxicity at 4.5 µM,KYSE-410; [1],-3.3%
same,cytotoxicity at 4.5 µM,COLO-680N; [1],3.4%
same,cytotoxicity at 4.5 µM,KYSE-150; [1],-13.7%
same,cytotoxicity at 4.5 µM,SW579; Debio-1143 4.5 μM alone,7.7%
same,cytotoxicity at 4.5 µM,CAL-27; [1],7.2%
same,cytotoxicity at 4.5 µM,TE-1; [1],-6%
same,cytotoxicity at 4.5 µM,KYSE-70; [1],-6.7%
same,cytotoxicity at 4.5 µM,A253; [1],3.2%
same,cytotoxicity at 4.5 µM,SCC-4; [1],0.7%
same,cytotoxicity at 4.5 µM,RPMI-2650; [1],5.6%
same,cytotoxicity at 4.5 µM,KYSE-270; [1],8.2%
same,cytotoxicity at 4.5 µM,SCC-25; [1],0.6%
same,cytotoxicity at 4.5 µM,Detroit 562; [1],9%
same,cytotoxicity at 4.5 µM,"OSC-19; OSC19, Debio-1143 4.5 μM alone",-7.1%
same,cytotoxicity at 4.5 µM,FADU; [1],-3.7%
same,cytotoxicity at 4.5 µM,T.Tn; Debio-1143 4.5 μM alone,4.4%
same,cytotoxicity at 2 µM,Panc-1,13.6%
"C[C@@H]1CN(CC(=O)N2CC(C)(C)c3nc(CO)c(Cc4ccc(F)cc4)cc32)[C@@H](CN2CCOC[C@H]2C)CN1 [ASTX660, tolinapant]",cytotoxicity at 0.9 µM,HT-29; ASTX660 900 nM alone,0.3%
same,cytotoxicity at 0.9 µM,LOVO; ASTX660 900 nM alone,6.5%
same,cytotoxicity at 0.9 µM,"LS411N; LS411N, ASTX660 900 nM alone",5.9%
same,cytotoxicity at 0.9 µM,SNU-C2B; ASTX660 900 nM alone,31.1%
same,cytotoxicity at 0.9 µM,"SW620; SW620, ASTX660 900 nM alone",2.6%
CN[C@@H](C)C(=O)N[C@H](C(=O)N1CCC[C@H]1c1nc(C(=O)c2ccc(F)cc2)cs1)C1CCCCC1 [LCL-161],cytotoxicity at 5 µM,HT-29; [2],6.2%
same,cytotoxicity at 5 µM,"LS411N; LS411N, LCL-161 5 uM alone, read-out: % cytotoxicity",10.5%
same,cytotoxicity at 5 µM,SNU-C2B; [2],72.9%
same,cytotoxicity at 5 µM,"SW620; SW620, LCL-161 5 uM alone, read-out: % cytotoxicity",4.7%
same,cytotoxicity at 5 µM,LS174T,9%
B1,% cytotoxicity,SCC-15; INBRX-109 1 nM alone,7.3%
same,% cytotoxicity,SCC-9; INBRX-109 1 nM alone,19.4%
same,% cytotoxicity,KYSE-410; INBRX-109 1 nM alone,2.6%
same,% cytotoxicity,COLO-680N; INBRX-109 1 nM alone,9.6%
same,% cytotoxicity,KYSE-150; INBRX-109 1 nM alone,−0.3%
same,% cytotoxicity,SW579; INBRX-109 1 nM alone,101.7%
same,% cytotoxicity,CAL-27; INBRX-109 1 nM alone,13.7%
same,% cytotoxicity,TE-1; INBRX-109 1 nM alone,38.4%
same,% cytotoxicity,KYSE-70; INBRX-109 1 nM alone,22.3%
same,% cytotoxicity,A253; INBRX-109 1 nM alone,50.9%
same,% cytotoxicity,SCC-4; INBRX-109 1 nM alone,8.5%
same,% cytotoxicity,RPMI-2650; INBRX-109 1 nM alone,2.9%
same,% cytotoxicity,KYSE-270; INBRX-109 1 nM alone,7.3%
same,% cytotoxicity,SCC-25; INBRX-109 1 nM alone,7.9%
same,% cytotoxicity,Detroit 562; INBRX-109 1 nM alone,42.9%
same,% cytotoxicity,OSC-19; INBRX-109 1 nM alone,100.9%
same,% cytotoxicity,FADU; INBRX-109 1 nM alone,6.1%
same,% cytotoxicity,T.Tn; INBRX-109 1 nM alone,42.9%
